# Results from patent publication US10752612B2, “PLK4 inhibitors” (LUDWIG INSTITUTE FOR CANCER RESEARCH LTD, priority 2015, dated 2020).
# Target: T1, human Plk4 kinase domain (aa 2-275) (Homo sapiens, UniProt O00444)
# T1 construct: purified 6×His-tagged human Plk4 kinase domain (aa 2-275); 6xHis; made in house; host or cells: E. coli
# T1 sequence (O00444 2-275): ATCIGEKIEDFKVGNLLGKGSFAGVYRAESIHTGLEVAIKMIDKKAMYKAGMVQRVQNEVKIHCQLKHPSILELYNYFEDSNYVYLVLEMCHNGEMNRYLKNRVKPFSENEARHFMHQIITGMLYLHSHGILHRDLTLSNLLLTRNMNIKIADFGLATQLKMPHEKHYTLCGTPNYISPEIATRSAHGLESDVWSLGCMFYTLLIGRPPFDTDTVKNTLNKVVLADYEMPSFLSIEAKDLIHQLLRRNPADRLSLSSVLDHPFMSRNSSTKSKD
# Assay: Plk4 kinase assay (ADP-Glo)
# Assay type: biochemical
# Conditions: Table 1
# Method in brief: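 Enzyme at 2.5-10 nM final, pH 8.0, reacted 4-16 hours at 25° C; ADP generation read by ADP-Glo luminescence. Ki derived from IC50 by Cheng-Prusoff or, for tight binders, Copeland formalism.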
row,IC50 [nM],SMILES
1,< 1000,Cc1cc(Nc2nc(Sc3ccc(NC(=O)C4CC4)cc3)nc(C)c2C)n[nH]1
2,100 to 1000,COc1c(Nc2cc(C)[nH]n2)nc(Sc2ccc(NC(=O)C3CC3)cc2)nc1N(C)CCN(C)C
3,< 1000,COc1c(Nc2cc(C)[nH]n2)nc(Sc2ccc(NC(=O)C3CC3)cc2)nc1N1CCCCC1
4,< 1000,COc1c(Nc2cc(C)[nH]n2)nc(Sc2ccc(NC(=O)C3CC3)cc2)nc1NC(C)C
5,< 1000,CNc1nc(Sc2ccc(NC(=O)C3CC3)cc2)nc(Nc2cc(C)[nH]n2)c1OC
6,100 to 1000,CCCOc1c(Nc2cc(C)[nH]n2)nc(Sc2ccc(NC(=O)C3CC3)cc2)nc1N(CC)CC
7,< 1000,CCNc1nc(Sc2ccc(NC(=O)C3CC3)cc2)nc(Nc2cc(C)[nH]n2)c1OC
8,< 1000,CC(=O)Nc1ccc(Sc2nc3c(c(Nc4cc(C)[nH]n4)n2)C(C)CC3)cc1 (stereo not shown)
9,< 1000,Cc1cc(Nc2nc(Sc3ccc(NC(=O)C4CCCC4)cc3)nc3c2C(C)CC3)n[nH]1 (stereo not shown)
10,< 1000,COc1c(Nc2cc(C)[nH]n2)nc(Sc2ccc(NC(=O)C3CC3)cc2)nc1N1CCN(C(C)C)CC1
11,< 1000,COc1c(Nc2cc(C)[nH]n2)nc(Sc2ccc(S(=O)(=O)Cc3cccc(F)c3F)cc2F)nc1N1CCOC[C@@H]1C
12,< 1000,COc1c(Nc2cc(C)[nH]n2)nc(Sc2ccc(S(=O)(=O)Cc3c(F)ccc(F)c3F)cc2F)nc1N1CCN(CCN(C)C)CC1
13,< 1000,COc1c(Nc2cc(C)[nH]n2)nc(Sc2ccc(S(=O)(=O)Cc3cccc([N+](=O)[O-])c3F)cc2F)nc1N1CCOC[C@@H]1C
14,< 1000,COc1c(Nc2cc(C)[nH]n2)nc(Sc2ccc(S(=O)(=O)Cc3cccc([N+](=O)[O-])c3)cc2)nc1N1CCOC[C@@H]1CO
15,< 1000,COc1c(Nc2cc(C)[nH]n2)nc(Sc2ccc(S(=O)(=O)Cc3cccc(Cl)c3F)cc2F)nc1N1CCOCC1
16,< 1000,COc1c(Nc2cc(C)[nH]n2)nc(Sc2ccc(S(=O)(=O)Cc3cccc(Br)c3F)cc2F)nc1N1CCOCC1
17,< 1000,COc1c(Nc2cc(C)[nH]n2)nc(Sc2ccc(S(=O)(=O)Cc3c(F)c(F)cc(F)c3F)cc2F)nc1N1CCOCC1
18,< 1000,COc1c(Nc2cc(C)[nH]n2)nc(Sc2ccc(S(=O)(=O)Cc3cccc(C(F)(F)F)c3F)cc2F)nc1N1CCOCC1
19,< 1000,COc1c(Nc2cc(C)[nH]n2)nc(Sc2ccc(S(=O)(=O)Cc3cccc(C#N)c3F)cc2F)nc1N1CCOCC1
20,< 1000,COc1c(Nc2cc(C)[nH]n2)nc(Sc2ccc(S(=O)(=O)Cc3cccc(N)c3F)cc2F)nc1N1CCOCC1
21,< 1000,COc1c(Nc2cc(C)[nH]n2)nc(Sc2ccc(S(=O)(=O)C(F)c3cccc([N+](=O)[O-])c3F)cc2F)nc1N1CCOCC1 (stereo not shown)
22,< 1000,COC(=O)c1cccc(CS(=O)(=O)c2ccc(Sc3nc(Nc4cc(C)[nH]n4)c(OC)c(N4CCOCC4)n3)c(F)c2)c1F
23,< 1000,COc1c(Nc2cc(C)[nH]n2)nc(Sc2ccc(S(=O)(=O)Cc3cccc(C(=O)N(C)C)c3F)cc2F)nc1N1CCOCC1

row,IC50 [nM],SMILES
1,< 1000,COc1c(Nc2cc(C)[nH]n2)nc(Sc2ccc(S(=O)(=O)Cc3cccc(C(N)=O)c3F)cc2F)nc1N1CCOCC1
2,< 1000,COc1c(Nc2cc(C)[nH]n2)nc(Sc2ccc(S(=O)(=O)Cc3cccc([N+](=O)[O-])c3F)cc2F)nc1N1CCOC[C@@H]1CO
3,< 1000,COc1c(Nc2cc(C)[nH]n2)nc(Sc2ccc(S(=O)(=O)Cc3cccc(Br)c3F)cc2F)nc1N1CCCCC1
4,< 1000,COc1c(Nc2cc(C)[nH]n2)nc(Sc2ccc(S(=O)(=O)Cc3cccc(I)c3F)cc2F)nc1N1CCOCC1
5,< 1000,COc1c(Nc2cc(C)[nH]n2)nc(Sc2ccc(S(=O)(=O)c3cccc([N+](=O)[O-])c3)cc2F)nc1N1CCOCC1
6,< 1000,COc1c(Nc2cc(C)[nH]n2)nc(Sc2ccc(C(=O)Nc3cccc([N+](=O)[O-])c3F)cc2F)nc1N1CCOCC1
7,< 1000,COc1c(Nc2cc(C)[nH]n2)nc(Sc2ccc(S(=O)(=O)C(F)c3cccc([N+](=O)[O-])c3F)cc2F)nc1N1CCN(CCN(C)C)CC1 (stereo not shown)
8,< 1000,COc1c(Nc2cc(C)[nH]n2)nc(Sc2ccc(C#Cc3cccc([N+](=O)[O-])c3F)cc2F)nc1N1CCOCC1
9,< 1000,COc1c(Nc2cc(C)[nH]n2)nc(Sc2ccc(/C=C/c3cccc([N+](=O)[O-])c3F)cc2F)nc1N1CCOCC1
10,< 1000,COc1c(Nc2cc(C)[nH]n2)nc(Sc2ccc(CCc3cccc([N+](=O)[O-])c3F)cc2F)nc1N1CCOCC1
11,< 1000,COc1c(Nc2cc(C)[nH]n2)nc(Sc2ccc(-c3cc4cccc([N+](=O)[O-])c4o3)cc2F)nc1N1CCOCC1
12,< 1000,COc1c(Nc2cc(C)[nH]n2)nc(Sc2ccc(C(=O)Cc3cccc([N+](=O)[O-])c3F)cc2F)nc1N1CCOCC1
13,< 1000,COc1c(Nc2cc(C)[nH]n2)nc(Sc2ccc(C(=O)Oc3cccc([N+](=O)[O-])c3F)cc2F)nc1N1CCOCC1
14,< 1000,COc1c(Nc2cc(C)[nH]n2)nc(Sc2ccc(S(=O)(=O)C(C)(C)c3cccc([N+](=O)[O-])c3F)cc2F)nc1N1CCOCC1
15,100 to 1000,COc1c(Nc2cc(C)[nH]n2)nc(Sc2ccc(NC(=O)c3cccc([N+](=O)[O-])c3F)cc2F)nc1N1CCOCC1
16,< 1000,COc1c(Nc2cc(C)[nH]n2)nc(Sc2ccc(S(=O)(=O)Cc3cccc(C#N)c3F)cc2F)nc1N1CCCCC1
17,< 1000,COc1c(Nc2cc(C)[nH]n2)nc(Sc2ccc(S(=O)(=O)Cc3cccc(C#N)c3F)cc2F)nc1N1CCN(CCN(C)C)CC1
18,< 1000,COc1c(Nc2cc(C)[nH]n2)nc(Sc2ccc(S(=O)(=O)C(F)c3cccc(C#N)c3F)cc2F)nc1N1CCOCC1 (stereo not shown)
19,< 1000,COc1c(Nc2cc(C)[nH]n2)nc(Sc2ccc(S(=O)(=O)Nc3cccc([N+](=O)[O-])c3)cc2F)nc1N1CCOCC1
20,< 1000,COc1c(Nc2cc(C)[nH]n2)nc(Sc2ccc(S(=O)(=O)Cc3cccc([N+](=O)[O-])c3F)cc2F)nc1N1CCCC[C@@H]1CO
21,< 1000,COc1c(Nc2cc(C)[nH]n2)nc(Sc2ccc(S(=O)(=O)Cc3cccc([N+](=O)[O-])c3F)cc2F)nc1N1CCC(CCN(C)C)CC1
22,< 1000,COc1c(Nc2cc(C)[nH]n2)nc(Sc2ccc(NC(=O)Cc3cccc([N+](=O)[O-])c3F)cc2F)nc1N1CCOCC1
23,< 1000,COc1c(Nc2cc(C)[nH]n2)nc(Sc2ccc(S(=O)(=O)C(F)c3cccc([N+](=O)[O-])c3F)cc2F)nc1N1CCC(CCN(C)C)CC1 (stereo not shown)

row,IC50 [nM],SMILES
1,< 1000,COc1c(Nc2cc(C)[nH]n2)nc(Sc2ccc(S(=O)(=O)C(C)(C)c3cccc([N+](=O)[O-])c3F)cc2F)nc1N1CCCCC1
2,< 1000,COc1c(Nc2cc(C)[nH]n2)nc(Sc2ccc(S(=O)(=O)C(C)(C)c3cccc([N+](=O)[O-])c3F)cc2F)nc1N1CCN(CCN(C)C)CC1
3,< 1000,COc1c(Nc2cc(C)[nH]n2)nc(Sc2ccc(S(=O)(=O)C(F)c3cccc([N+](=O)[O-])c3F)cc2F)nc1N1CCOC[C@@H]1CO (stereo partly shown)
4,< 1000,COc1c(Nc2cc(C)[nH]n2)nc(Sc2ccc(S(=O)(=O)C(F)c3c(F)c(F)cc(F)c3F)cc2F)nc1N1CCOCC1 (stereo not shown)
5,< 1000,COc1c(Nc2cc(C)[nH]n2)nc(Sc2ccc(S(=O)(=O)C(C)(C)c3c(F)c(F)cc(F)c3F)cc2F)nc1N1CCN(CCN(C)C)CC1
6,< 1000,COc1c(Nc2cc(C)[nH]n2)nc(Sc2ccc(S(=O)(=O)C(C)(C)c3cccc([N+](=O)[O-])c3F)cc2F)nc1N1CCC(CCN(C)C)CC1
7,< 1000,COc1c(Nc2cc(C)[nH]n2)nc(Sc2ccc(S(=O)(=O)C(C)(C)c3cccc([N+](=O)[O-])c3F)cc2F)nc1N1CCOC[C@@H]1CO
8,< 1000,COc1c(Nc2cc(C)[nH]n2)nc(Sc2ccc(S(=O)(=O)C(C)(C)c3cccc(Cl)c3F)cc2F)nc1N1CCOCC1
9,< 1000,COc1c(Nc2cc(C)[nH]n2)nc(Sc2ccc(S(=O)(=O)C(C)(C)c3cccc(Cl)c3F)cc2F)nc1N1CCN(CCN(C)C)CC1
10,< 1000,COc1c(Nc2cc(C)[nH]n2)nc(Sc2ccc(S(=O)(=O)C(C)(C)c3cc(F)cc(Cl)c3F)cc2F)nc1N1CCOCC1
11,< 1000,COc1c(Nc2cc(C)[nH]n2)nc(Sc2ccc(S(=O)(=O)C(C)(C)c3cccc([N+](=O)[O-])c3F)cc2F)nc1N1CCNCC1
12,< 1000,COc1c(Nc2cc(C)[nH]n2)nc(Sc2ccc(S(=O)(=O)C(C)(C)c3cccc(Cl)c3F)cc2F)nc1N1CCC(CCN(C)C)CC1
13,< 1000,COc1c(Nc2cc(C)[nH]n2)nc(Sc2ccc(S(=O)(=O)C(C)(C)c3cccc([N+](=O)[O-])c3F)cc2F)nc1N1CCC(CC(=O)N(C)C)CC1
14,< 1000,COc1c(Nc2cc(C)[nH]n2)nc(Sc2ccc(S(=O)(=O)C(C)(C)c3c(F)c(F)cc(F)c3F)cc2F)nc1N1CCC(N(C)C)CC1
15,< 1000,COc1c(Nc2cc(C)[nH]n2)nc(Sc2ccc(S(=O)(=O)C(C)(C)c3c(F)c(F)cc(Cl)c3F)cc2F)nc1N1CCOCC1
16,< 1000,COc1c(Nc2cc(C)[nH]n2)nc(Sc2ccc(S(=O)(=O)Cc3c(F)c(F)cc(Cl)c3F)cc2F)nc1N1CCN(CCN(C)C)CC1
17,< 1000,COc1c(Nc2cc(C)[nH]n2)nc(Sc2ccc(S(=O)(=O)Cc3c(F)c(F)cc(Cl)c3F)cc2F)nc1N1CCC(CCN(C)C)CC1
18,< 1000,COc1c(Nc2cc(C)[nH]n2)nc(Sc2ccc(S(=O)(=O)C(C)(C)c3cccc([N+](=O)[O-])c3F)cc2F)nc1N1CCC(OC)C1 (stereo not shown)
19,< 1000,COc1c(Nc2cc(C)[nH]n2)nc(Sc2ccc(S(=O)(=O)C(C)(C)c3cccc([N+](=O)[O-])c3F)cc2F)nc1N1CCN(C(=O)CN(C)C)CC1
20,< 1000,COc1c(Nc2cc(C)[nH]n2)nc(Sc2ccc(S(=O)(=O)Cc3c(F)c(F)c(F)c(F)c3F)cc2F)nc1N1CCOCC1
21,< 1000,COc1c(Nc2cc(C)[nH]n2)nc(Sc2ccc(S(=O)(=O)C(C)(C)c3cccc([N+](=O)[O-])c3F)cc2F)nc1N1CCC(NC(C)=O)CC1
